Measurements published in PubChem BioAssay (NCI).
Values joined by “and” are separate entries in the source; they are usually repeats but may differ in a detail not shown here. Identical values can stand only once.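 48-hour exposure; five concentrations; linearly interpolated endpoints. GI50 = concentration required for 50% inhibition of growth. TGI: concentration producing complete growth inhibition.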

Tests used:
Assay in all cases: DTP human tumour cell line panel, 48 h
KM12 colon = test system: KM12 colon
HOP-62 NSCLC = test system: HOP-62 NSCLC
UACC-62 melanoma = test system: UACC-62 melanoma
HT29 colon = test system: HT29 colon
MDA-MB-231 breast = test system: MDA-MB-231 breast
SNB-19 CNS = test system: SNB-19 CNS
RXF 393 renal = test system: RXF 393 renal
HCC-2998 colon = test system: HCC-2998 colon

SMILES	GI50 (KM12 colon)	TGI (KM12 colon)	GI50 (HOP-62 NSCLC)	TGI (HOP-62 NSCLC)	GI50 (UACC-62 melanoma)	TGI (UACC-62 melanoma)	GI50 (HT29 colon)	TGI (HT29 colon)	GI50 (MDA-MB-231 breast)	TGI (MDA-MB-231 breast)	GI50 (SNB-19 CNS)	TGI (SNB-19 CNS)	GI50 (RXF 393 renal)	TGI (RXF 393 renal)	GI50 (HCC-2998 colon)	TGI (HCC-2998 colon)
CCN(CC)CCOc1ccc2c(-c3ccccc3)c(-c3ccc(OC)cc3)c(=O)oc2c1	3.83 µM	14.1 µM	4.47 µM	16.8 µM	3.82 µM	15 µM	3 µM	11.4 µM	4.91 µM	17.5 µM	10.2 µM	22.2 µM	3.23 µM	13.7 µM	4.22 µM	15 µM
CCCCNC(=O)CC1=C(C)/C(=C/c2[nH]c(-c3ccc[nH]3)cc2OC)N=C1C	1.8 µM	10.6 µM	2.5 µM	9.76 µM	–	–	2.18 µM	11.1 µM	1.48 µM	8.04 µM	4.09 µM	30.1 µM	3.29 µM	11.6 µM	–	–
O=C1NC(c2cccc3ccccc23)Nc2ccc(Cl)cc21 (stereo unspecified)	–	0.803 µM	–	11.9 µM	–	–	–	0.105 µM	–	30.3 µM	–	> 100 µM	–	0.0261 µM	–	0.285 µM and 0.0607 µM
C=C(CC)C(=O)c1ccc(OCC(=O)O)c(Cl)c1Cl	–	21.4 µM	–	> 56 µM	–	30.3 µM	–	36.3 µM	–	34.6 µM	–	31.3 µM	–	34.2 µM	–	35.4 µM
COc1cccc(N2C(=N)/C(=C3\Nc4ccccc4S3)CC2=O)c1	7.48 µM	> 100 µM	2.73 µM	28.1 µM	> 100 µM	> 100 µM	3.34 µM	> 100 µM	51.1 µM	> 100 µM	18.9 µM	> 100 µM	2.61 µM	11.1 µM	–	–
O=C(CCl)N1CCN(c2ccccc2)CC1	–	37.2 µM	–	36.3 µM	–	–	–	41.4 µM	–	–	–	> 100 µM	–	35.2 µM	–	32.2 µM
C=C1CC[C@@](C)(c2cc(Br)c(C)cc2OC(C)=O)[C@H]1C	6.38 µM	21.1 µM	17.5 µM	31.8 µM	7.06 µM	20.1 µM	14.9 µM	28.1 µM	12.5 µM	25.9 µM	15.5 µM	31.2 µM	14.8 µM	32.5 µM	–	–
Nc1ncc(-c2ccc3ncnc(N4CCc5cc(F)c(Cl)cc54)c3c2)cc1C=O	2.86 µM	> 100 µM	0.896 µM	> 100 µM	0.574 µM	3.02 µM	1.57 µM	> 100 µM	1.8 µM	> 100 µM	2.28 µM	> 100 µM	0.471 µM	2.14 µM	2.29 µM	> 100 µM
O=C(O)C1CC[N-]CC1.O=C(O)C1CC[N-]CC1.[NH2-].[NH2-].[Pt+4]	> 100 µM	> 100 µM	> 100 µM	> 100 µM	> 100 µM	> 100 µM	> 100 µM	> 100 µM	> 100 µM	> 100 µM	> 100 µM	> 100 µM	> 100 µM	> 100 µM	–	–
CN(C)Cc1ccc(O)c(CN(C)C)n1	–	> 100 µM	–	> 100 µM	–	> 100 µM	–	> 100 µM	–	> 100 µM	–	> 100 µM	–	> 100 µM	–	–
O=C(O)c1cc(-c2ccc(-c3ccccc3)cc2)nc2cc3ccccc3cc12	–	> 100 µM	–	> 100 µM	–	> 100 µM	–	> 100 µM	–	> 100 µM	–	> 100 µM	–	> 100 µM	–	–
Cc1cc2c3c(nc4ccccc42)C(=O)c2cccnc2-c3n1	0.142 µM	0.529 µM	0.316 µM	2.23 µM	0.284 µM	0.936 µM	0.663 µM	2.03 µM	0.644 µM	5.56 µM	0.255 µM	1.66 µM	1.17 µM	3.19 µM	0.311 µM	1.26 µM
C/C=C(/C)C(=O)OC1C=C(CO)C(=O)C(OC(=O)C2(C)OC2C)C1C(C)C (stereo unspecified)	1.83 µM	3.67 µM	1.96 µM	4.3 µM	1.33 µM	2.68 µM	1.66 µM	3.38 µM	1.72 µM	3.79 µM	2.33 µM	5.87 µM	1.77 µM	3.27 µM	1.74 µM	3.22 µM
CC[C@]1(O)CC2CN(CCc3c([nH]c4ccccc34)C(C(=O)OC)(c3cc4c(cc3OC)N(C=O)[C@H]3[C@@](O)(C(=O)OC)[C@H](OC(C)=O)[C@]5(CC)[C@@H]6C[C@@H]6CN6CC[C@]43[C@@H]65)C2)C1 (stereo partly specified)	< 0.00325 µM	0.00386 µM	< 0.00325 µM	> 13.7 µM	< 0.00325 µM	> 21 µM	< 0.00325 µM	0.033 µM	< 0.00325 µM	0.191 µM	< 0.00325 µM	> 32.5 µM	–	–	< 0.00325 µM	9.23 µM
CN1C(=O)[C@@H](CC2CCCC2)N(C2CCCC2)c2nc(Nc3cc(Cl)c(O)c(Cl)c3)ncc21	37.5 µM	> 100 µM	27.9 µM	> 100 µM	11.1 µM	27.4 µM	26.7 µM	88.3 µM	–	–	28.3 µM	> 100 µM	13.5 µM	52 µM	29.8 µM	> 100 µM
COc1cc2c3c(n(CCCNCCCCN)c(=O)c2cc1OC)-c1cc2c(cc1C3=O)OCO2	4.58 µM	21.7 µM	0.836 µM	32.5 µM	2.1 µM	11.3 µM	4.57 µM	> 100 µM	2.86 µM	9.13 µM	2.65 µM	18.8 µM	0.301 µM	11.4 µM	–	–
CC(=O)CCC[C@@H](C)[C@@H]1O[C@H]([C@@]2(C)CCC(=O)O2)CC2[C@H]1OC(=O)C21CC1 (stereo partly specified)	> 100 µM	> 100 µM	–	–	> 100 µM	> 100 µM	> 100 µM	> 100 µM	> 100 µM	> 100 µM	> 100 µM	> 100 µM	> 100 µM	> 100 µM	77.2 µM	> 100 µM
O=C1CC[C@@H](S(=O)(=O)c2ccccc2)[C@H](/C=C/c2ccccc2)O1	–	> 100 µM	–	> 100 µM	–	> 100 µM	–	> 100 µM	–	–	–	> 100 µM	–	> 100 µM	–	> 100 µM
